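Dose response: 5 concentrations. Exposure: 48 h. Format: 96-well plates. Endpoint: linear interpolation; highest concentration if not reached. At the GI50, growth is halved.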 Active and inactive are the calls of the source. Rule as the data show it: active = GI50 up to about 1.1 µM and inactive = higher.
Tests used:
Assay in all cases: NCI tumour cell line growth inhibition, 48 h
PC-3 = test system: PC-3
ACHN = test system: ACHN
MDA-N = test system: MDA-N
EKVX = test system: EKVX
SR = test system: SR
OVCAR-5 = test system: OVCAR-5
MCF7 = test system: MCF7
HCT-15 = test system: HCT-15
T47D = test system: T47D
NCI/ADR-RES = test system: NCI/ADR-RES
SK-MEL-5 = test system: SK-MEL-5
SN12C = test system: SN12C
CAKI-1 = test system: CAKI-1
COLO 205 = test system: COLO 205
NCI-H522 = test system: NCI-H522
RPMI-8226 = test system: RPMI-8226
UACC-62 = test system: UACC-62
NCI-H23 = test system: NCI-H23

| Structure (SMILES) | GI50 (PC-3) | GI50 (ACHN) | GI50 (MDA-N) | GI50 (EKVX) | GI50 (SR) | GI50 (OVCAR-5) | GI50 (MCF7) | GI50 (HCT-15) [µM] | GI50 (T47D) | GI50 (NCI/ADR-RES) | GI50 (SK-MEL-5) | GI50 (SN12C) | GI50 (CAKI-1) | GI50 (COLO 205) | GI50 (NCI-H522) | GI50 (RPMI-8226) | GI50 (UACC-62) | GI50 (NCI-H23) |
| --- | --- | --- | --- | --- | --- | --- | --- | --- | --- | --- | --- | --- | --- | --- | --- | --- | --- | --- |
| O=C(Nc1ccc(Cl)cc1)c1cc(S(=O)(=O)N2CCNNC2=O)c(S)cc1Cl | > 100 µM (inactive) | > 100 µM (inactive) | > 100 µM (inactive) | > 100 µM (inactive) | > 100 µM (inactive) | > 100 µM (inactive) | > 100 µM (inactive) | > 100 | 35.6 µM (inactive) | > 100 µM (inactive) | > 100 µM (inactive) | > 100 µM (inactive) | > 100 µM (inactive) | > 100 µM (inactive) | 24.7 µM (inactive) | 55.1 µM (inactive) | > 100 µM (inactive) | – |
| O=C1O/C(=C(/Cl)c2c3ccccc3cc3ccccc23)c2ccccc21 | 24.8 µM (inactive) | 24.5 µM (inactive) | 27.4 µM (inactive) | 26.4 µM (inactive) | 4.58 µM (inactive) | 33.2 µM (inactive) | 32.1 µM (inactive) | 20.6 | 80.5 µM (inactive) | 35.2 µM (inactive) | 15.4 µM (inactive) | 26.1 µM (inactive) | 33.4 µM (inactive) | 23.2 µM (inactive) | 29.8 µM (inactive) | 20.3 µM (inactive) | 28.6 µM (inactive) | 26.1 µM (inactive) |
| COC(=O)c1ccc(CCc2cc(O)c(Br)cc2O)cc1 | 8.02 µM (inactive) | 13.2 µM (inactive) | 15.7 µM (inactive) | 16.9 µM (inactive) | 3.2 µM (inactive) | 18.5 µM (inactive) | 13.5 µM (inactive) | 13.4 | 18.6 µM (inactive) | 14.3 µM (inactive) | 11.5 µM (inactive) | 15 µM (inactive) | 10.3 µM (inactive) | 12.6 µM (inactive) | 3.16 µM (inactive) | 3.35 µM (inactive) | 14.1 µM (inactive) | 10.4 µM (inactive) |
| CCn1c2c(c3c(C(=O)OC)c(O)ccc31)C(=O)c1ccccc1C2=O | 12.4 µM (inactive) | 4.69 µM (inactive) | 11.9 µM (inactive) | 26 µM (inactive) | 11.3 µM (inactive) | 18.4 µM (inactive) | 16.4 µM (inactive) | 7.85 | 8.07 µM (inactive) | 16.6 µM (inactive) | 11.7 µM (inactive) | 11.9 µM (inactive) | 15.5 µM (inactive) | 17.1 µM (inactive) | 5.9 µM (inactive) | 7.6 µM (inactive) | – | 18.3 µM (inactive) |
| O[C@@]12Cc3c([nH]c4ccccc34)[C@@H]3Oc4c(-c5ccccc5)ccc5c4[C@@]31CCN(CC1CC1)[C@@H]2C5 | 1.84 µM (inactive) | 1.44 µM (inactive) | 1.73 µM (inactive) | 2.01 µM (inactive) | 2.79 µM (inactive) | 4.11 µM (inactive) | 1.83 µM (inactive) | 1.95 | 2 µM (inactive) | 2.51 µM (inactive) | 1.83 µM (inactive) | – | 2.97 µM (inactive) | 1.81 µM (inactive) | 1.77 µM (inactive) | 3.65 µM (inactive) | 1.8 µM (inactive) | 1.78 µM (inactive) |
| Nc1ccc(OCCCc2c(-c3ccccc3)[nH]c(N)nc2=O)cc1 | 41.7 µM (inactive) | 33.9 µM (inactive) | 31.9 µM (inactive) | 0.398 µM (active) | > 100 µM (inactive) | > 100 µM (inactive) | 40.3 µM (inactive) | > 100 | 12.2 µM (inactive) | > 100 µM (inactive) | 41.1 µM (inactive) | 50.7 µM (inactive) | 91.6 µM (inactive) | 26 µM (inactive) | 18.4 µM (inactive) | 84.9 µM (inactive) | 16.1 µM (inactive) | 47.2 µM (inactive) |
| O=C1N(c2ccccc2)C(=S)/C(=C/c2ccc(Cl)cc2)N1c1ccc(Cl)cc1 | > 100 µM (inactive) | 19.1 µM (inactive) | 32.9 µM (inactive) | 38.5 µM (inactive) | 0.571 µM (active) | 78.3 µM (inactive) | 81.1 µM (inactive) | 26.9 | 63.8 µM (inactive) | 77.3 µM (inactive) | 46.6 µM (inactive) | 52 µM (inactive) | > 100 µM (inactive) | 27.5 µM (inactive) | 15.9 µM (inactive) | 18.3 µM (inactive) | 15.8 µM (inactive) | 44.3 µM (inactive) |
| C=C(C(=O)OC)[C@@H]1C[C@@H](OC(C)=O)C2=C[C@H](C[C@@]3(C)O[C@@H]3C3=CC(C)=C(O3)[C@H]1OC(C)=O)OC2=O [BIPINNATIN I] | 25.2 µM (inactive) | 16.5 µM (inactive) | 19.4 µM (inactive) | 18.4 µM (inactive) | 9.38 µM (inactive) | 17.9 µM (inactive) | 8.28 µM (inactive) | 17.5 | 12.7 µM (inactive) | 32.9 µM (inactive) | 15.2 µM (inactive) | 22.4 µM (inactive) | 7.74 µM (inactive) | 10.8 µM (inactive) | 2.59 µM (inactive) | 5.75 µM (inactive) | 18.4 µM (inactive) | 14.5 µM (inactive) |
| Cc1csc2nc3[nH]ncc3c(=O)n12 | > 100 µM (inactive) | > 100 µM (inactive) | > 100 µM (inactive) | > 100 µM (inactive) | > 100 µM (inactive) | > 100 µM (inactive) | > 100 µM (inactive) | > 100 | > 100 µM (inactive) | 66.8 µM (inactive) | > 100 µM (inactive) | > 100 µM (inactive) | > 100 µM (inactive) | > 100 µM (inactive) | > 100 µM (inactive) | > 100 µM (inactive) | > 100 µM (inactive) | > 100 µM (inactive) |
| CN1C(=O)C(CC(=O)O)NC1=S (centres undefined) | > 100 µM (inactive) | > 100 µM (inactive) | > 100 µM (inactive) | 56.6 µM (inactive) | > 100 µM (inactive) | > 100 µM (inactive) | 54 µM (inactive) | > 100 | 51.4 µM (inactive) | > 100 µM (inactive) | > 100 µM (inactive) | > 100 µM (inactive) | > 100 µM (inactive) | > 100 µM (inactive) | > 100 µM (inactive) | > 100 µM (inactive) | > 100 µM (inactive) | > 100 µM (inactive) |
| O=C(n1[nH]c(=O)n(-c2ccc([N+](=O)[O-])cc2)c1=O)C(Cl)(Cl)Cl | > 75 µM (inactive) | > 75 µM (inactive) | > 75 µM (inactive) | > 75 µM (inactive) | > 75 µM (inactive) | > 75 µM (inactive) | > 75 µM (inactive) | > 75 | > 75 µM (inactive) | > 75 µM (inactive) | > 75 µM (inactive) | > 75 µM (inactive) | > 75 µM (inactive) | > 75 µM (inactive) | > 75 µM (inactive) | > 75 µM (inactive) | > 75 µM (inactive) | > 75 µM (inactive) |
| C=CC(C)CCC(C/C=C(\C)CCC=C(C)C)C(=C)CCCC(C)C (centres undefined) | > 100 µM (inactive) | > 100 µM (inactive) | > 100 µM (inactive) | > 100 µM (inactive) | > 100 µM (inactive) | > 100 µM (inactive) | > 100 µM (inactive) | > 100 | > 100 µM (inactive) | > 100 µM (inactive) | > 100 µM (inactive) | > 100 µM (inactive) | > 100 µM (inactive) | > 100 µM (inactive) | > 100 µM (inactive) | > 100 µM (inactive) | > 100 µM (inactive) | > 100 µM (inactive) |
| CN(Cc1cc(Br)cc(Br)c1O)Cc1c(O)ccc2ccccc12 | 16.3 µM (inactive) | 22.7 µM (inactive) | 16.3 µM (inactive) | 16.9 µM (inactive) | 20.6 µM (inactive) | 17.6 µM (inactive) | 26.4 µM (inactive) | 30.3 | 21.9 µM (inactive) | 34.6 µM (inactive) | 17.4 µM (inactive) | 14.9 µM (inactive) | 16.1 µM (inactive) | 19.1 µM (inactive) | 26.7 µM (inactive) | 22.6 µM (inactive) | 19.7 µM (inactive) | 22.6 µM (inactive) |
| CN(C)CCCNc1cc(O)c2c(c1O)C(=O)c1ccccc1C2=O | 13.8 µM (inactive) | 12.9 µM (inactive) | 14.3 µM (inactive) | 15 µM (inactive) | 3.01 µM (inactive) | 18.9 µM (inactive) | 11.6 µM (inactive) | 5.26 | 19 µM (inactive) | 3.4 µM (inactive) | 13.2 µM (inactive) | 3.48 µM (inactive) | 13 µM (inactive) | 11.5 µM (inactive) | 21.8 µM (inactive) | 12.9 µM (inactive) | 18.4 µM (inactive) | 13.3 µM (inactive) |
| Nc1nc(Cl)c(N)c(NCC2(CO)CC(OCc3ccccc3)C2)n1 (centres undefined) | > 100 µM (inactive) | > 100 µM (inactive) | > 100 µM (inactive) | > 100 µM (inactive) | 6.5 µM (inactive) | > 100 µM (inactive) | 11.3 µM (inactive) | > 100 | 23.7 µM (inactive) | 48 µM (inactive) | 20.4 µM (inactive) | > 100 µM (inactive) | > 100 µM (inactive) | > 100 µM (inactive) | > 100 µM (inactive) | > 100 µM (inactive) | > 100 µM (inactive) | 4.17 µM (inactive) |
| O=C(O)c1nc2ccccc2nc1NCc1ccc(F)cc1 | > 100 µM (inactive) | – | > 100 µM (inactive) | 45.8 µM (inactive) | 42.4 µM (inactive) | > 100 µM (inactive) | 86.5 µM (inactive) | 16.6 | 40.9 µM (inactive) | 30.2 µM (inactive) | 35.8 µM (inactive) | > 100 µM (inactive) | 62.4 µM (inactive) | 31.9 µM (inactive) | 48.9 µM (inactive) | 60.4 µM (inactive) | > 100 µM (inactive) | 54 µM (inactive) |
